Source: US20020015990A1, “LACTOBACILLUS BIFIDUS GROWTH PROMOTING COMPOSITION AND USE THEREOF” (priority 1996, published 2002)

What was measured:
[1] = test system: 4 species of Lactobacillus bifidus; assay: Mean consumption speed-accelerating activity of 4 species of test bacteria; type: cell-based, Bifidobacterium adolescentis, breve, bifidum, longum; conditions: 8 hours; for Mean consumption speed-accelerating activity of 4 species: Table 2, raffinose + lactulose; for Mean consumption speed-accelerating activity of 4 species / Mean consumption speed-accelerating activity of 4 species of test bacteria: total 2.0% in place of 2.0% glucose; for Mean consumption speed-accelerating activity of 4 species of test bacteria: Table 3, raffinose + other oligosaccharide
Procedure: Bifidobacterium bifidum BB-225, Bifidobacterium adolescentis BB-102, Bifidobacterium breve BB-308, Bifidobacterium longum BB-536. Cultivation was performed as in above-mentioned Preliminary Test 1 and the sugar consumption speed was calculated by the following formula and comparative studies were performed, using the increment increase in turbidity of each medium up to 8 hours later as the index. Consumption speed-accelerating effect (fold)=(increase in turbidity after 8 hours in test medium)/(increase in turbidity after 8 hours in basic medium) The same four species of Lactobacillus bifidus as used in above-mentioned Preliminary Test 2 were employed. The basic culture medium and pre-cultivation solution were prepared as for above-mentioned Preliminary Test 1. The test culture medium was prepared changing the total amount of each of the desired raffinose and oligosaccharide to 2.0% in place of the 2.0% glucose in the basic medium and the addition ratio to 13 steps. The oligosaccharides that were used were the same as in above-mentioned Preliminary Test 2, and cultivation, determination of turbidity and assessment of the sugar consumption speed-accelerating activity were performed by the same methods as in above-mentioned Preliminary Test 2. The consumption speed-accelerating effect of each of the 4 strains of Lactobaccilus bifidus tested, as well as the average consumption speed-accelerating effect of the 4 species tested, in a culture medium that used a combination of raffinose and lactulose are shown in Table 2 and the average consumption speed-accelerating effect in each of the 4 species of bacteria tested with various test media other than medium using raffinose and lactulose are shown in Table 3.

[2] = test system: Bifidobacterium adolescentis BB-102; assay: Consumption speed-accelerating effect (increase in turbidity after 8 hours, test medium / glucose basic medium); type: cell-based; conditions: for Consumption speed-accelerating effect, Bifidobacterium adolescentis: Table 1, single oligosaccharide in place of glucose; for Consumption speed-accelerating effect, B. adolescentis: Table 2, raffinose + lactulose, total 2.0% in place of 2.0% glucose
Procedure: (§1) Bifidobacterium bifidum BB-225, Bifidobacterium adolescentis BB-102, Bifidobacterium breve BB-308, Bifidobacterium longum BB-536. The basic culture medium and pre-cultivation solution were prepared as in above-mentioned Preliminary Test 1. The test culture medium was prepared using the following 7 types of oligosaccharides, which are widely used as Lactobacillus bifidus growth factor, in place of glucose: Raffinose (Nihon […] Seito Co., Ltd.), lactulose (Morinaga Milk Industry Co., Ltd.), galacto-oligosaccharide (Nisshin Seito Co., Ltd.), lactosucrose (Hayashibara Shoji Co., Ltd.), fructo-oligosaccharide (Meiji Seika Co., Ltd.), isomalto-oligosaccharide (Hayashibara Shoji Co., Ltd.), and xylo-oligosaccharide (Santori Co., Ltd.). Cultivation was performed as in above-mentioned Preliminary Test 1 and the sugar consumption speed was calculated by the following formula and comparative studies were performed, using the increment increase in turbidity of each medium up to 8 hours later as the index. Consumption speed-accelerating effect (fold)=(increase in turbidity after 8 hours in test medium)/(increase in turbidity after 8 hours in basic medium) The basic culture medium and pre-cultivation solution were prepared as for above-mentioned Preliminary Test 1. The test culture medium was prepared changing the total amount of each of the desired raffinose and oligosaccharide to 2.0% in place of the 2.0% glucose in the basic medium and the addition ratio to 13 steps. The oligosaccharides that were used were the same as in above-mentioned Preliminary Test 2, and cultivation, determination of turbidity and assessment of the sugar consumption speed-accelerating activity were performed by the same methods as in above-mentioned Preliminary Test 2.

[3] = test system: Bifidobacterium bifidum BB-225; assay: as above; type: cell-based; conditions: for Consumption speed-accelerating effect, Bifidobacterium bifidum: Table 1, single oligosaccharide in place of glucose; for Consumption speed-accelerating effect, B. bifidum: Table 2, raffinose + lactulose, total 2.0% in place of 2.0% glucose
Procedure: as §1

[4] = test system: Bifidobacterium longum BB-536; assay: as above; type: cell-based; conditions: for Consumption speed-accelerating effect, Bifidobacterium longum: Table 1, single oligosaccharide in place of glucose; for Consumption speed-accelerating effect, B longum: Table 2, raffinose + lactulose, total 2.0% in place of 2.0% glucose
Procedure: as §1

[5] = test system: Bifidobacterium breve BB-308; assay: as above; type: cell-based; conditions: for Consumption speed-accelerating effect, Bifidobacterium breve: Table 1, single oligosaccharide in place of glucose; for Consumption speed-accelerating effect, B breve: Table 2, raffinose + lactulose, total 2.0% in place of 2.0% glucose
Procedure: as §1

[6] = test system: Bifidobacterium longum BB-536; assay: Preliminary Test 1: change over time in medium turbidity (growth curve) with different sugar sources; type: cell-based; conditions: sugar in place of glucose in basic medium; up to 24 hours of cultivation at 37° C.; turbidity 660 nm
Procedure: This test was performed in order to investigate changes over time in medium turbidity and determine if measurement of turbidity after a certain cultivation time is valid for assessing the speed with which the Lactobacilluls bifidus consumes sugar:
Bifidobacterium longum BB-536, which is a microorganism belonging to the genus Bifidobacterium, derived from humans that was separated and identified from the feces of healthy adults by conventional methods (Tomonari Mitsuoka, ed., “Research of Bifidus Bacteria,” pages 40˜60, Zaidanhojin Nihon Bifizusukin Senta (Japan Bifidus Bacteria Center), 1994) was used in this test. Furthermore, this strain is stored by the inventors and is available for any person as needed. […]
First, 0.5 ml of each of the above-mentioned cultivation solutions of Lactobacillus bifidus were inoculated in every 2 of the above-mentioned test media and turbidity was immediately measured with a quartz cell at a wavelength of 660 nm and light path length of 10 mm using a spectrophotometer (Hitachi Seisakusho Co., Ltd.). […] Turbidity was measured under the same conditions as previously described at 2-hour intervals and the mean turbidity of the 2 test tubes was calculated as the determination.
Moreover, basic medium containing glucose was simultaneously used as the control and turbidity was similarly determined. […]

SMILES | Mean consumption speed-accelerating activity of 4 species [1] | Mean consumption speed-accelerating activity of 4 species of test bacteria [1] | Consumption speed-accelerating effect, Bifidobacterium adolescentis [2] [fold] | Consumption speed-accelerating effect, B. adolescentis [2] | Consumption speed-accelerating effect, Bifidobacterium bifidum [3] [fold] | Consumption speed-accelerating effect, B. bifidum [3] | availability for Bifidobacterium bifidus (in words) ([3]; single oligosaccharide in place of glucose) | Consumption speed-accelerating effect, Bifidobacterium longum [4] [fold] | Consumption speed-accelerating effect, B longum [4] | Consumption speed-accelerating effect, Bifidobacterium breve [5] [fold] | Consumption speed-accelerating effect, B breve [5] | sugar consumption speed compared with glucose medium (FIG. 1) [6] | consumption speed-accelerating activity by Lactobacillus bifidus (in words) ([1]; 4 species, compared with glucose medium)
OC[C@H]1O[C@H](OC[C@H]2O[C@H](O[C@]3(CO)O[C@H](CO)[C@@H](O)[C@@H]3O)[C@H](O)[C@@H](O)[C@@H]2O)[C@H](O)[C@@H](O)[C@H]1O [Raffinose] | (0.82) fold | (0.82) fold | 1.02 | (1.02) fold | 0.02 | (0.02) fold | did not show availability | 1.09 | (1.09) fold | 1.15 | (1.15) fold | higher consumption speed than the medium that used glucose | 
OC[C@H]1O[C@@H](O[C@H]2[C@H](O)[C@@H](O)[C@@H](O[C@]3(CO)O[C@H](CO)[C@@H](O)[C@@H]3O)O[C@@H]2CO)[C@H](O)[C@@H](O)[C@H]1O [Lacto-sucrose, lactosucrose] |  | (0.63) fold | 0.83 |  | 0.03 |  |  | 0.78 |  | 0.87 |  |  | 
OC[C@H]1O[C@@H](O[C@@H]2[C@@H](CO)OC(O)(CO)[C@H]2O)[C@H](O)[C@@H](O)[C@H]1O (mixture of isomers) [Lactulose] | (0.98) fold |  | 0.97 | (0.97) fold | 0.96 | (0.96) fold |  | 0.92 | (0.92) fold | 1.08 | (1.08) fold | approximately the same sugar consumption speed as the medium that used glucose | relatively strong consumption speed-accelerating activity
